Tests used:
[1] = tested on: EoL-1 (human eosinophilic leukaemia cell line) cells; assay: TNF-α-induced cytokine release, EoL-1 cells differentiated with PMA (Luminex); format: cell-based; details: 24 h, Bio1211 vs TNF-α
Procedure: (§1) EoL-1 (human eosinophilic leukaemia cell line) cells (Saito et al., 1985; Mayumi, 1992) were maintained in RPMI-1640 medium with L-glutamine supplemented with 10% (v/v) FBS at 37° C. in a humidified atmosphere with 5% CO2. Where indicated, 24 h before the experiment 25 ng/mL PMA ((phorbol 12-myristate 13-acetate, purchased from Sigma Aldrich) was added to the medium to induce eosinophil granulation and differentiation (Ohtsu et al., 1993; Zimmermann et al., 2000).
(§2) Half-million cells were aliquoted per point in a 24 well plate; each experiment was performed in triplicate and carried out in parallel with eosinophils differentiated and non differentiated with PMA (25 ng/mL, 24 h). Cells were suspended in low serum medium (RPMI-1640, 0.1% (v/v) FBS). TNF-α was used to induce cytokine secretion as previously described by Steube et al. (2000), and the net release was obtained by comparison to the basal (non-TNF-α treated). In the first experiment we evaluated the concentration and time relation between TNF-α stimulation and cytokine release. Therefore, 5, 10, and 25 ng/mL of TNF-α was administered to the cells at 0, ½, 1, 2, 3, 6, 12 and 24 h (data not shown). An aliquot of 150 μL of supernate was collected for cytokines' analysis. […] Differentiated and non-differentiated EoL-1 cells were exposed from 0.1 to 2.3 mM levocabastine ([…]Levocabastine 0.05% solution eye drops containing cyclodextrins, without benzalkonium chloride), and aliquots of the supernates were collected after 12 and 24 h. The content of cytokines at time zero was estimated by treating the cells with 400 nM calcimycin (A-23187), which is a cytolytic agent that frees all the mediators from the cytoplasmic compartment. In addition, for each experiment we tested the effect of the vehicle, which was added to the wells in a concentration equal to the maximum amount used for drug dilution.
(§3) Samples (supernates 12 and 24 h) in triplicate were analyzed using Luminex 200™ (Luminex, Austin, Tex.) and Beadview software v1.0 (Upstate Cell Signaling Solutions, Temecula, Calif.).
(§4) All data are presented as mean±SEM for the indicated number of experiments. Statistical significance was determined by Newman-Keuls test after ANOVA using GraphPad Prism (version 3.0; GraphPad Software Inc., San Diego, Calif., USA). P-values<0.05 were considered to be significant.

[2] = tested on: EoL-1 (human eosinophilic leukaemia cell line) cells; assay: TNF-α-induced cytokine release, non-differentiated EoL-1 cells (NO PMA) (Luminex); format: cell-based; details: 24 h, Bio1211 vs TNF-α
Procedure: as §1, §2, §3, §4

Substance: 4-((2-methylphenyl)aminocarbonyl)-aminophenyl)acetyl-Leu-Asp-Val-Pro-OH [Bio1211]
- Fractalkine (PMA), p of decrement [1]: ns
- G-CSF (PMA), p of decrement [1]: ns
- GM-CSF (PMA), p of decrement [1]: ns
- IL-1ra (PMA), p of decrement [1]: ns
- IL-1α (PMA), p of decrement [1]: P < 0.05
- IL-1β (PMA), p of decrement [1]: ns
- IL-5 (PMA), p of decrement [1]: ns
- IL-6 (PMA), p of decrement [1]: ns
- IL-7 (PMA), p of decrement [1]: ns
- IL-8 (PMA), p of decrement [1]: ns
- IL-10 (PMA), p of decrement [1]: ns
- IL-12p40 (PMA), p of decrement [1]: P < 0.05
- IP-10 (PMA), p of decrement [1]: P < 0.001
- MCP-1 (PMA), p of decrement [1]: P < 0.001
- MIP-1α (PMA), p of decrement [1]: ns
- MIP-1β (PMA), p of decrement [1]: ns
- RANTES (PMA), p of decrement [1]: ns
- TGF-α (PMA), p of decrement [1]: ns
- VEGF (PMA), p of decrement [1]: P < 0.05
- Fractalkine (NO PMA), p of decrement [2]: P < 0.05
- G-CSF (NO PMA), p of decrement [2]: ns
- GM-CSF (NO PMA), p of decrement [2]: P < 0.05
- IL-1ra (NO PMA), p of decrement [2]: P < 0.001
- IL-1α (NO PMA), p of decrement [2]: ns
- IL-1β (NO PMA), p of decrement [2]: ns
- IL-5 (NO PMA), p of decrement [2]: ns
- IL-6 (NO PMA), p of decrement [2]: P < 0.05
- IL-7 (NO PMA), p of decrement [2]: ns
- IL-8 (NO PMA), p of decrement [2]: P < 0.001
- IL-10 (NO PMA), p of decrement [2]: ns
- IL-12p40 (NO PMA), p of decrement [2]: P < 0.05
- IP-10 (NO PMA), p of decrement [2]: P < 0.001
- MCP-1 (NO PMA), p of decrement [2]: ns
- MIP-1α (NO PMA), p of decrement [2]: ns
- MIP-1β (NO PMA), p of decrement [2]: ns
- RANTES (NO PMA), p of decrement [2]: ns
- TGF-α (NO PMA), p of decrement [2]: ns
- VEGF (NO PMA), p of decrement [2]: ns
